For one data set, the system named is pregnant mice. Kind of data set: Dam body weight and fat mass, aborted embryos, litter size, pup weight at birth. The data set is classed as in vivo, mouse. On the procedure: Dams were injected from E16.5 to E18.5 with either PBS (vehicle, n=8-11), AMH (n=10), AMH+GnRH antag (n=8-10). Body weight (grams: g); (FIG. 9A), subcutaneous fat mass (FIG. 9B) and perigonadal fat mass (FIG. 9C) was measured in dams at gestational day 19.5. (FIG. 9D) Dams were injected from E16.5 to E18.5 with either PBS (vehicle, n=9), AMH (n=9), AMH+GnRH antag (n=9). Dams were sacrificed one day later and the number of aborted embryos per litter was calculated. (FIGS. 9E, 9F) Dams were injected from E16.5 to E18.5 with either PBS (vehicle, n=3), AMH (n=3), AMH+GnRH antag (n=3). The number of pups per litter (FIG. 9E) and the weight of the pups at birth (FIG. 9F) was calculated for each treatment group (vehicle, n=12 pups; AMH, n=11 pups; AMH+GnRH antag, n=12 pups). Values are represented as the mean±s.e.m. […] Data were combined from three independent experiments. FIGS. 9A to 9F: left bar: vehicle; middle bar: AMH; right bar: AMH+GnRH antagonist.

In the next data set the test system is PAMH mice. Kind of data set: Postnatal GnRH antagonist treatment in PAMH mice: estrous cyclicity, ovaries, hormone levels. The format is in vivo, mouse. The method, then:
FIG. 6A-6G. Postnatal GnRH antagonist treatment of PAMH mice restores the PCOS-like neuroendocrine phenotype. (FIG. 6A) Schematic of experimental design whereby vaginal cytology (estrous cyclicity) in PAMH adult (P60-P90, n=5) was analyzed for 12 days before and after postnatal intraperitoneal (i.p.) injections with 0.5 mg Kg^−1 cetrorelix acetate (PAMH+GnRH antag). Injections were administered every 2 days over 12 days and, on the first diestrus at the end of the treatment, trunk blood was collected for hormonal analysis. (FIG. 6B) Representation of estrous cyclicity of a female PAMH mouse before postnatal GnRH antagonist treatment (no treatment) and during postnatal GnRH antagonist treatment (PAMH+GnRH antag). Days of treatment are denoted by arrows. (FIG. 6C) Quantitative analysis of the % of completed estrous cycles in control (prenatal PBS-treated, n=19), PAMH (prenatal AMH-treated, n=19), and PAMH mice postnatally treated with GnRH antagonist (PAMH+GnRH antag, n=5). The horizontal line in each scatter plot corresponds to the median value. The vertical line represents the 25th-75th percentile range. Comparisons between treatment groups were performed using Kruskal-Wallis test followed by Dunn's post hoc analysis test (control vs PAMH ***P<0.0001; control vs PAMH+GnRH antag, P>0.999; PAMH vs PAMH+GnRH antag, *P=0.015). (FIG. 6D) Scatter plot representing the percentage (%) of time spent in each estrous cycle. The horizontal line in each scatter plot corresponds to the median value. The vertical line represents the 25th-75th percentile range. The percentage (%) of time spent in each estrous cycle was quantified in control, PAMH and PAMH+GnRH antag animals groups, as described above. Comparisons between treatment groups were performed using Kruskal-Wallis test followed by Dunn's post hoc analysis test (M/D: control vs PAMH ***P<0.0001; control vs PAMH+GnRH antag, P>0.999; PAMH vs PAMH+GnRH antag, *P=0.0051; E: control vs PAMH ***P<0.0001; control vs PAMH+GnRH antag, P>0.999; PAMH vs PAMH+GnRH antag, *P=0.014; P: control vs PAMH ***P<0.0001; control vs PAMH+GnRH antag, P>0.999; PAMH vs PAMH+GnRH antag, **P=0.0007). In FIG. 6D, (●): control; light grey point: PAMH; “○”: PAMH+GnRH antagonist. (FIG. 6E) Representative photomicrographs of ovaries from adult (P60-P90) control, PAMH and PAMH+GnRH antag mice. Ovary sections (5 μm thick) were stained with haematoxylin-eosin. (FIG. 6F) Mean T levels were measured in diestrus adult control (n=7), PAMH (n=5) and PAMH+GnRH antag (n=5) animals. Comparisons between treatment groups were performed using One-way ANOVA and Tukey's multiple comparisons post-hoc test, F (2,14)=29.24, ***P<0.0001. (FIG. 6G) Mean LH levels were measured in diestrus adult control (n=9), PAMH (n=10) and PAMH+GnRH antag (n=5) animals. Comparisons between treatment groups were performed using One-way ANOVA and Tukey's multiple comparisons post-hoc test, F(2,21)=65.78, ***P<0.0001. Abbreviations: M/D, Metestrus/Diestrus; E, Estrus; P, Proestrus; A, atretic follicles; CL, corpora lutea; AF, antral follcicles.
(FIG. 10A) Schematic of experimental design whereby vaginal cytology (estrous cyclicity) in PAMH adult mice (P90, n=6) was analyzed during 3 months, before and after postnatal intraperitoneal (i.p.) injections with 0.05, 0.5 and 5 mg/Kg Cetrorelix acetate. The Y axis refers to the different stages of the estrous cycle: Metaestrus/Diestrus (M/D), Estrus (E) and Proestrus (P). The X axis represents the time-course of the experiments (days). Animals were injected i.p. every second day, for 12 days, with Cetrorelix acetate at the dose of 0.05 and 0.5 mg/Kg, and every day with Cetrorelix acetate at the dose of 5 mg/Kg. Tail-blood samples were collected for LH measurements twice before the beginning of the treatments, and at day 2 and 6 of each treatment as well as 4 days after the last injection (no treatment), that followed each administration period. […]

[1] abbreviates: 0.5 mg/Kg i.p. every second day for 12 days.

Structures are written as SMILES. Where a SMILES comes first, the peptide text is derived from it. [ ]: non-standard residue; d: D form. dPhe(4-Cl) = N[C@H](Cc1ccc(Cl)cc1)C(=O)O; d2Nal = N[C@H](Cc1ccc2ccccc2c1)C(=O)O; dCit = NC(=O)NCCC[C@@H](N)C(=O)O; d3Pal = N[C@H](Cc1cccnc1)C(=O)O

As for `CC(=O)N[C@H](Cc1ccc2ccccc2c1)C(=O)N[C@H](Cc1ccc(Cl)cc1)C(=O)N[C@H](Cc1cccnc1)C(=O)N[C@@H](CO)C(=O)N[C@@H](Cc1ccc(O)cc1)C(=O)N[C@H](CCCNC(N)=O)C(=O)N[C@@H](CC(C)C)C(=O)N[C@@H](CCCNC(=N)N)C(=O)N1CCC[C@H]1C(=O)N[C@H](C)C(N)=O` [Cetrorelix acetate, Ac-D-2Nal-D-Phe(4-Cl)-D-3Pal-Ser-Tyr-D-Cit-Leu-Arg-Pro-D-Ala-NH2] (Ac-[d2Nal][dPhe(4-Cl)][d3Pal]SY[dCit]LRP[dA]-NH2), the “body weights of pups at birth” value with pregnant mice (dams i.p. AMH+GnRH antag E16.5-E18.5) is “did not observe any changes”. Also, in the data set with pregnant mice (dams injected 3 days with AMH+GnRH antag, E19.5), the “body weight, subcutaneous fat mass or perigonadal fat mass of dams” value is recorded as “did not find any changes”. Also, the “serum LH levels of PAMH mice” value with PAMH mice (0.05 mg/Kg i.p. every second day) is recorded as “significantly more elevated than in Control animals”. For the same compound, the “LH pulsatility in PAMH animals” value in the data set with PAMH mice (0.5 mg/Kg every second day, diestrus, end of treatment) is listed as “normalized the LH pulsatility”. Also, in the data set on PAMH mice (setting [1]), the “LH levels of PAMH mice” value is “normalized” and the “estrous cyclicity of PAMH mice” value is on record as “restored”. In the data set on PAMH mice (0.5 mg/Kg i.p. every second day for 12 days, diestrus), the “T levels of PAMH mice” value is recorded as “normalized”. Also, the “ovarian morphology of PAMH mice” value in the data set with PAMH mice (0.5 mg/Kg i.p. every two days for 12 days) is given as “restored”. In addition, the “ovulation in PAMH animals” value in the data set on PAMH mice (0.5 mg/Kg injected every 48 hours) was “restored ovulation”. Besides, the “serum LH levels of PAMH mice” value with PAMH mice (5 mg/Kg i.p. daily) is on record as “significantly suppressed”. Besides, the “reversibility of effects on LH secretion” value with PAMH mice (after discontinuation of treatment, independently of dose) is reported as “reversible a few days after discontinuation of treatment”.

Values taken from patent US12208130B2, “Treatment of women affected with polycystic ovary syndrome” (INSTITUT NATIONAL DE LA SANTE ET DE LA RECHERCHE MEDICALE …, priority 2017, dated 2025).
